Target: AMPK
Experiment: AMPK activation, enzyme-linked immunosorbent assay
Assay type: biochemical
Conditions: compounds of Table 2 (Table 7)

EC50	Structure (SMILES)
5 to 10 µM	O=C(NC1CCN(Cc2cccnc2)CC1)c1ccc2[nH]c3c(c2c1)CN(Cc1ccc(F)cc1)CC3 [2-8, 2-(4-fluorobenzyl)-N-(1-(pyridin-3-ylmethyl)piperidin-4-yl)-2,3,4,5-tetrahydro-1H-pyrido[4,3-b]indole-8-carboxamide]
< 0.5 µM	N#Cc1ccc(CN2CCC(NC(=O)c3ccc4[nH]c5c(c4c3)CN(Cc3ccc(F)cc3)CC5)CC2)cc1 [2-9, N-(1-(4-cyanobenzyl)piperidin-4-yl)-2-(4-fluorobenzyl)-2,3,4,5-tetrahydro-1H-pyrido[4,3-b]indole-8-carboxamide]
0.5 to 1 µM	O=C(NC1CCN(Cc2ccc(C(F)(F)F)cc2)CC1)c1ccc2[nH]c3c(c2c1)CN(Cc1ccc(F)cc1)CC3 [2-10, N-(1-(4-trifluoro-methylbenzyl)piperidin-4-yl)-2-(4-fluorobenzyl)-2,3,4,5-tetrahydro-1H-pyrido[4,3-b] indole-8-carboxamide]
< 0.5 µM	O=C(NC1CCN(Cc2cccnc2)CC1)c1ccc2[nH]c3c(c2c1)CN(Cc1ccc(C(F)(F)F)cc1)CC3 [2-11, N-(1-(pyridin-3-ylmethyl)piperidin-4-yl)-2-(4-(trifluoromethyl)benzyl)-2,3,4,5-tetrahydro-1H-pyrido [4,3-b]indole-8-carboxamide]
< 0.5 µM	N#Cc1ccc(CN2CCC(NC(=O)c3ccc4[nH]c5c(c4c3)CN(Cc3ccc(C(F)(F)F)cc3)CC5)CC2)cc1 [2-12, N-(1-(4-cyanobenzyl)piperidin-4-yl)-2-(4-(trifluoromethyl)benzyl)-2,3,4,5-tetrahydro-1H-pyrido [4,3-b]indole-8-carboxamide]
< 0.5 µM	O=C(NC1CCN(Cc2ccc(C(F)(F)F)cc2)CC1)c1ccc2[nH]c3c(c2c1)CN(Cc1ccc(C(F)(F)F)cc1)CC3 [2-13, N-(1-(4-trifluoromethyl-benzyl)piperidin-4-yl)-2-(4-(trifluoro-methyl)benzyl)-2,3,4,5-tetrahydro-1H-pyrido[4,3-b]indole-8-carboxamide]
< 0.5 µM	O=C(NC1CCN(CCc2ccccc2)CC1)c1ccc2[nH]c3c(c2c1)CN(Cc1ccc(C(F)(F)F)cc1)CC3 [2-14, N-(1-phenethyl-piperidin-4-yl)-2-(4-(trifluoromethyl)benzyl)-2,3,4,5-tetrahydro-1H-pyrido[4,3-b]indole-8-carboxamide]
< 0.5 µM	O=C(NC1CCN(c2ccc(F)cc2)CC1)c1ccc2[nH]c3c(c2c1)CN(Cc1ccc(C(F)(F)F)cc1)CC3 [2-15, N-(1-(4-fluorophenyl)piperidin-4-yl)-2-(4-(trifluoromethyl)benzyl)-2,3,4,5-tetrahydro-1H-pyrido[4,3-b]indole-8-carboxamide]
< 0.5 µM	Cn1c2c(c3cc(C(=O)NC4CCN(Cc5ccc(C#N)cc5)CC4)ccc31)CN(Cc1ccc(C(F)(F)F)cc1)CC2 [2-16]
0.5 to 1 µM	Cn1c2c(c3cc(C(=O)NC4CCN(Cc5ccc(C(F)(F)F)cc5)CC4)ccc31)CN(Cc1ccc(C(F)(F)F)cc1)CC2 [2-17, N-(1-(4-trifluoro-methylbenzyl)piperidin-4-yl)-5-methyl-2-(4-(trifluoromethyl)benzyl)-2,3,4,5-tetrahydro-1H-pyrido[4,3-b]indole-8-carboxamide]
1 to 5 µM	Cn1c2c(c3cc(C(=O)NC4CCN(Cc5cccnc5)CC4)ccc31)CN(Cc1ccc(C(F)(F)F)cc1)CC2 [2-18, 5-methyl-N-(1-(pyridin-3-ylmethyl)piperidin-4-yl)-2-(4-(trifluoromethyl)benzyl)-2,3,4,5-tetrahydro-1H-pyrido[4,3-b]indole-8-carboxamide]
> 100 µM	O=C(NC1CCN(Cc2ccccc2)CC1)c1ccc2[nH]c3c(c2c1)CN(S(=O)(=O)c1ccc(C(F)(F)F)cc1)CC3 [2-19, N-(1-benzylpiperidin-4-yl)-2-(4-(trifluoromethyl)phenylsulfonyl)-2,3,4,5 - tetrahydro-1H-pyrido[4,3-b]indole-8-carboxamide]
1 to 5 µM	CC(=O)n1c2c(c3cc(C(=O)NC4CCN(Cc5cccnc5)CC4)ccc31)CN(Cc1ccc(C(F)(F)F)cc1)CC2 [2-20, 5-acetyl-N-(1-(pyridin-3-ylmethyl)piperidin-4-yl)-2-(4-(trifluoromethyl)benzyl)-2,3,4,5-tetrahydro-1H-pyrido[4,3-b]indole-8-carboxamide]
0.5 to 1 µM	N#Cc1ccc(S(=O)(=O)N2CCC(NC(=O)c3ccc4[nH]c5c(c4c3)CN(Cc3ccc(C(F)(F)F)cc3)CC5)CC2)cc1 [2-21, N-(1-(4-cyanophenyl-sulfonyl)piperidin-4-yl)-2-(4-(trifluoro-methyl)benzyl)-2,3,4,5-tetrahydro-1H-pyrido[4,3-b]indole-8-carboxamide]
0.5 to 1 µM	O=C(NC1CCN(S(=O)(=O)c2cccnc2)CC1)c1ccc2[nH]c3c(c2c1)CN(Cc1ccc(C(F)(F)F)cc1)CC3 [2-22, N-(1-(pyridin-3-ylsulfonyl)piperidin-4-yl)-2-(4-(trifluoromethyl)benzyl)-2,3,4,5-tetrahydro-1H-pyrido[4,3-b]indole-8-carboxamide]
1 to 5 µM	O=C(NC1CCN(S(=O)(=O)c2ccc(C(F)(F)F)cc2)CC1)c1ccc2[nH]c3c(c2c1)CN(Cc1ccc(C(F)(F)F)cc1)CC3 [2-23, 2-(4-(trifluoromethyl)benzyl)-N-(1-(4-(trifluoromethyl)phenylsulfonyl)piperidin-4-yl)-2,3,4,5-tetrahydro-1H-pyrido[4,3-b]indole-8-carboxamide]
1 to 5 µM	N#Cc1ccc(CN2CCC(NC(=O)c3ccc4[nH]c5c(c4c3)CN(S(=O)(=O)c3ccc(C(F)(F)F)cc3)CC5)CC2)cc1 [2-24, N-(1-(4-cyanobenzyl)piperidin-4-yl)-2-(4-(trifluoromethyl)phenylsulfonyl)-2,3,4,5-tetrahydro-1H-pyrido [4,3-b]indole-8-carboxamide]
10 to 50 µM	N#Cc1ccc(CN2CCC(NC(=O)c3ccc4[nH]c5c(c4c3)CN(S(=O)(=O)c3ccc(C#N)cc3)CC5)CC2)cc1 [2-25, N-(1-(4-cyanobenzyl)piperidin-4-yl)-2-(4-cyanophenylsulfonyl)-2,3,4,5-tetrahydro-1H-pyrido[4,3-b] indole-8-carboxamide]
10 to 50 µM	N#Cc1ccc(CN2CCC(NC(=O)c3ccc4[nH]c5c(c4c3)CN(S(=O)(=O)c3cccnc3)CC5)CC2)cc1 [2-26, N-(1-(4-cyanobenzyl)piperidin-4-yl)-2-(pyridin-3-ylsulfonyl)-2,3,4,5-tetrahydro-1H-pyrido[4,3-b] indole-8-carboxamide]
1 to 5 µM	N#Cc1ccc(NC(=O)N2CCC(NC(=O)c3ccc4[nH]c5c(c4c3)CN(Cc3ccc(C(F)(F)F)cc3)CC5)CC2)cc1 [2-27, N-(1-(4-cyanophenyl-carbamoyl)piperidin-4-yl)-2-(4-(trifluoromethyl)benzyl)-2,3,4,5-tetrahydro-1H-pyrido [4,3-b]indole-8-carboxamide]
1 to 5 µM	O=C(NC1CCN(S(=O)(=O)c2ccc(F)cc2)CC1)c1ccc2[nH]c3c(c2c1)CN(Cc1ccc(C(F)(F)F)cc1)CC3 [2-28, N-(1-(4-fluorophenyl-sulfonyl)piperidin-4-yl)-2-(4-(trifluoro-methyl)benzyl)-2,3,4,5-tetrahydro-1H-pyrido [4,3-b]indole-8-carboxamide]
1 to 5 µM	N#Cc1cccc(S(=O)(=O)N2CCC(NC(=O)c3ccc4[nH]c5c(c4c3)CN(Cc3ccc(C(F)(F)F)cc3)CC5)CC2)c1 [2-29, N-(1-(3-cyanophenyl-sulfonyl)piperidin-4-yl)-2-(4-(trifluoro-methyl)benzyl)-2,3,4,5-tetrahydro-1H-pyrido[4,3-b]indole-8-carboxamide]
1 to 5 µM	O=C(NC1CCN(S(=O)(=O)c2cccc(C(F)(F)F)c2)CC1)c1ccc2[nH]c3c(c2c1)CN(Cc1ccc(C(F)(F)F)cc1)CC3 [2-30, 2-(4-(trifluoromethyl)benzyl)-N-(1-(3-(trifluoromethyl)phenylsulfonyl)piperidin-4-yl)-2,3,4,5-tetrahydro-1H-pyrido[4,3-b]indole-8-carboxamide]
1 to 5 µM	O=C(NC1CCN(S(=O)(=O)c2ccc(Cl)cc2)CC1)c1ccc2[nH]c3c(c2c1)CN(Cc1ccc(C(F)(F)F)cc1)CC3 [2-32, N-(1-(4-chlorophenyl-sulfonyl)piperidin-4-yl)-2-(4-(trifluoro-methyl)benzyl)-2,3,4,5-tetrahydro-1H-pyrido [4,3-b]indole-8-carboxamide]
1 to 5 µM	O=C(NC1CCN(C(=O)Nc2ccc(C(F)(F)F)cc2)CC1)c1ccc2[nH]c3c(c2c1)CN(Cc1ccc(C(F)(F)F)cc1)CC3 [2-33, 2-(4-(trifluoromethyl)benzyl)-N-(1-(4-(trifluoromethyl)phenylcarbamoyl)piperidin-4-yl)-2,3,4,5-tetrahydro-1H-pyrido[4,3-b]indole-8-carboxamide]
10 to 50 µM	O=C(NC1CCN(S(=O)(=O)c2ccc(F)cc2)CC1)c1ccc2[nH]c3c(c2c1)CN(c1ccc(F)cc1)CC3 [2-35, 2-(4-fluorophenyl)-N-(1-(4-fluorophenylsulfonyl)piperidin-4-yl)-2,3,4,5-tetrahydro-1H-pyrido[4,3-b]indole-8-carboxamide]
> 100 µM	O=C(NC1CCN(Cc2cccnc2)CC1)c1ccc2[nH]c3c(c2c1)CN(c1ccc(F)cc1)CC3 [2-36, 2-(4-fluorophenyl)-N-(1-(pyridin-3-ylmethyl)piperidin-4-yl)-2,3,4,5-tetrahydro-1H-pyrido [4,3-b]indole-8-carboxamide]
5 to 10 µM	O=C(NC1CCN(Cc2ccc(C(F)(F)F)cc2)CC1)c1ccc2[nH]c3c(c2c1)CN(c1ccc(F)cc1)CC3 [2-37, 2-(4-fluorophenyl)-N-(1-(4-(trifluoromethyl)benzyl)piperidin-4-yl)-2,3,4,5-tetrahydro-1H-pyrido[4,3-b]indole-8-carboxamide]
10 to 50 µM	CC(C)(C)OC(=O)N1CCC(NC(=O)c2ccc3[nH]c4c(c3c2)CN(c2ccc(F)cc2)CC4)CC1 [2-38, tert-butyl 4-(2-(4-fluorophenyl)-2,3,4,5-tetrahydro-1H-pyrido [4,3-b]indole-8-carboxamido)piperidine-1-carboxylate]
10 to 50 µM	O=C(NC1CCN(C(=O)c2ccc(F)cc2)CC1)c1ccc2[nH]c3c(c2c1)CN(c1ccc(F)cc1)CC3 [2-39, N-(1-(4-fluorobenzoyl)piperidin-4-yl)-2-(4-fluorophenyl)-2,3,4,5-tetrahydro-1H-pyrido[4,3-b]indole-8-carboxamide]
